This note sets out measurements from patent US20250000849A1, “COMPOSITE COMPOSITION CONTAINING ANGIOTENSIN RECEPTOR BLOCKER AND SGLT2 INHIBITOR” (MEDITAKE CO., LTD., priority 2021, published 2025).

What all share (type): in vivo
Holding throughout (design): unit not given here

Assay [1] has as its system spontaneously hypertensive rat (SHR). Briefly: Blood pressure-lowering effect of combined administration of angiotensin receptor blocker and dapagliflozin in SHR. The note with it: Dapagliflozin 1 mg/kg/day. On the procedure: (§1) The animals were housed in a room with a temperature of […] relative humidity of 50±10%, and a 12-hour light/dark cycle, and food and water were provided ad libitum.
(§2) All data are expressed as mean±S.E.M. Blood pressure measurements were schematized using GraphPad Prism 9 (GraphPad Software Inc., San Diego, CA).
Blood pressure was measured daily immediately before (0 hr) and 4 hours after (4 hr) dosing while administering the drug for a total of 19 days, and the recovery of blood pressure was monitored during a 1-week recovery period after the end of administration.

Assay [2] has the same test system. Briefly: Blood pressure-lowering effect of combined administration of angiotensin receptor blocker and empagliflozin in SHR. The settings on record: Empagliflozin 1 mg/kg/day. On the procedure: as §1, §2
Blood pressure was measured daily immediately before (0 hr) and 4 hours after (4 hr) dosing while administering the drug for a total of 19 days, and the recovery of blood pressure was monitored during a 1-week recovery period after the end of administration. Specifically, the animals were divided into two groups to evaluate the blood pressure response when fimasartan (Group 1) or dapagliflozin (Group 2) was administered alone, and to evaluate the blood pressure response to the addition of the other drugs in sequentially increasing doses, and the results are shown in FIG. 2.
The experiments were conducted in the same manner as in Example 3 above, but using empagliflozin as an SGLT2 inhibitor.
The angiotensin receptor blockers, fimasartan, azilsartan, and olmesartan were divided by dose, and each administered alone or in combination with empagliflozin, and the results of blood pressure measurements in each experimental group are shown in Table 4 and FIGS. 7 to 9 below.

The test system is the same in assay [3]. The assay is described as above. The settings on record: Empagliflozin 1 mg/kg/day, Day 14 (4 h).

Take `CCOc1ccc(Cc2cc([C@@H]3O[C@H](CO)[C@@H](O)[C@H](O)[C@H]3O)ccc2Cl)cc1` [Dapagliflozin, dapagliflozin]: the “Blood pressure, Mean” value in assay [1] (Day 1 (pre-dose)) is recorded as 100.0; in assay [1] (Day 7 (4 h)), 101.2; in assay [1] (Day 14 (4 h)), 96.5; in assay [1] (Recovery), 105.5.

Turning to `OC[C@H]1O[C@@H](c2ccc(Cl)c(Cc3ccc(O[C@H]4CCOC4)cc3)c2)[C@H](O)[C@@H](O)[C@@H]1O` [Empagliflozin, empagliflozin], the “Blood pressure, Mean” value in assay [2] (Day 1 (pre-dose)) is 100.0; in assay [2] (Day 7 (4 h)) it was 97.1; in assay [2] (Recovery), 101.8; in assay [3], 96.4.
